Drawing on publication PMC2993883 (Journal of Neural Transmission, 2010), this text covers IC50 for one compound.

SMILES strings stand for the structures.

By IC50 is commonly meant the midpoint of a concentration-inhibition curve. Lower therefore signals greater potency.

Targets include PDE-10A1 (Homo sapiens, UniProt Q9Y233); PDE-3A (Homo sapiens, UniProt Q14432); PDE-2A3 (Homo sapiens, UniProt O00408); PDE-4A1 (Homo sapiens, UniProt P27815).
Common to all, as to test: IMAP fluorescence polarization PDE assay, 8-point IC50
Format in all cases: biochemical
Background: Polarisation of emitted light reports the rotation of a fluorescent probe.

Chain of PDE-4A1 (P27815 265-886 limits assumed): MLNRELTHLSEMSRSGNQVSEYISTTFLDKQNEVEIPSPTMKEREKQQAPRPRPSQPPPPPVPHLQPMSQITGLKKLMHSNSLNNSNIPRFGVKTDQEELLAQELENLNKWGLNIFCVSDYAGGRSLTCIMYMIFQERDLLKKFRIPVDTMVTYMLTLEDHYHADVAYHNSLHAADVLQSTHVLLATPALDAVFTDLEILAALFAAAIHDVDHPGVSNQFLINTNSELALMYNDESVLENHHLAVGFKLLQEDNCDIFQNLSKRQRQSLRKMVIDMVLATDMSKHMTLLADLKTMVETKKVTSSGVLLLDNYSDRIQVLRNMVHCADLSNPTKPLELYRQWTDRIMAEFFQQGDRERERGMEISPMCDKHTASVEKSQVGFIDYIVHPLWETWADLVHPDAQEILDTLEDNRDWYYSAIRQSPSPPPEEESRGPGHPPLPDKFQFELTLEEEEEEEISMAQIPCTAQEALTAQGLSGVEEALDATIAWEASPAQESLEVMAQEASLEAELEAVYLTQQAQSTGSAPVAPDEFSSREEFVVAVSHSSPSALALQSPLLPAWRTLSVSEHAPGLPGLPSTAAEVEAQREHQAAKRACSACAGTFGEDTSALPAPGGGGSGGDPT
Chain of PDE-2A3 (O00408 2-941): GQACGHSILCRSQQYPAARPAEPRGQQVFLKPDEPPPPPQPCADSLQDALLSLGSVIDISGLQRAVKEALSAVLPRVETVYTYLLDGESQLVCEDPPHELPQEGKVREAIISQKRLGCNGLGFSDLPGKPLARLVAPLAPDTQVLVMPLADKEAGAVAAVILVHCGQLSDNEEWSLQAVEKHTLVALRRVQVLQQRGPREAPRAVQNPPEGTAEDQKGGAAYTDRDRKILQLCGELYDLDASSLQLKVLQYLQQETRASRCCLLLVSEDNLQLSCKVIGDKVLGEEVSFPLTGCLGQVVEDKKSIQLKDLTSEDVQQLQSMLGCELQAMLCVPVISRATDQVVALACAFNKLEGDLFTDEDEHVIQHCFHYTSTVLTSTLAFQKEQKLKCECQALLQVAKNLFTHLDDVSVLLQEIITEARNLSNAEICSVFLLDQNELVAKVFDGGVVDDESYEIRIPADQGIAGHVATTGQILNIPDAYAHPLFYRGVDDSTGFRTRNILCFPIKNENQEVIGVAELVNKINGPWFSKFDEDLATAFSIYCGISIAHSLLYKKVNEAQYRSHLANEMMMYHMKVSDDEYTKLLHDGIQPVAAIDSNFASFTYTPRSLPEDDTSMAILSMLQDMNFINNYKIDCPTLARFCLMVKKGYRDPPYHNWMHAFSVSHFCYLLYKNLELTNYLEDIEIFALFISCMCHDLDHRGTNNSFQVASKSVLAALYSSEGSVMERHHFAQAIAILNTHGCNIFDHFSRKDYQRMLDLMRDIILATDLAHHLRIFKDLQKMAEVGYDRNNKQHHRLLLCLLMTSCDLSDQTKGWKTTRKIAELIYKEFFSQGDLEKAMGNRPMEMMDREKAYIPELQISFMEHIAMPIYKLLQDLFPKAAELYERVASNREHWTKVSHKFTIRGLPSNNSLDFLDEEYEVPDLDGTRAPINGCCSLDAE
Chain of PDE-3A (Q14432 whole entry): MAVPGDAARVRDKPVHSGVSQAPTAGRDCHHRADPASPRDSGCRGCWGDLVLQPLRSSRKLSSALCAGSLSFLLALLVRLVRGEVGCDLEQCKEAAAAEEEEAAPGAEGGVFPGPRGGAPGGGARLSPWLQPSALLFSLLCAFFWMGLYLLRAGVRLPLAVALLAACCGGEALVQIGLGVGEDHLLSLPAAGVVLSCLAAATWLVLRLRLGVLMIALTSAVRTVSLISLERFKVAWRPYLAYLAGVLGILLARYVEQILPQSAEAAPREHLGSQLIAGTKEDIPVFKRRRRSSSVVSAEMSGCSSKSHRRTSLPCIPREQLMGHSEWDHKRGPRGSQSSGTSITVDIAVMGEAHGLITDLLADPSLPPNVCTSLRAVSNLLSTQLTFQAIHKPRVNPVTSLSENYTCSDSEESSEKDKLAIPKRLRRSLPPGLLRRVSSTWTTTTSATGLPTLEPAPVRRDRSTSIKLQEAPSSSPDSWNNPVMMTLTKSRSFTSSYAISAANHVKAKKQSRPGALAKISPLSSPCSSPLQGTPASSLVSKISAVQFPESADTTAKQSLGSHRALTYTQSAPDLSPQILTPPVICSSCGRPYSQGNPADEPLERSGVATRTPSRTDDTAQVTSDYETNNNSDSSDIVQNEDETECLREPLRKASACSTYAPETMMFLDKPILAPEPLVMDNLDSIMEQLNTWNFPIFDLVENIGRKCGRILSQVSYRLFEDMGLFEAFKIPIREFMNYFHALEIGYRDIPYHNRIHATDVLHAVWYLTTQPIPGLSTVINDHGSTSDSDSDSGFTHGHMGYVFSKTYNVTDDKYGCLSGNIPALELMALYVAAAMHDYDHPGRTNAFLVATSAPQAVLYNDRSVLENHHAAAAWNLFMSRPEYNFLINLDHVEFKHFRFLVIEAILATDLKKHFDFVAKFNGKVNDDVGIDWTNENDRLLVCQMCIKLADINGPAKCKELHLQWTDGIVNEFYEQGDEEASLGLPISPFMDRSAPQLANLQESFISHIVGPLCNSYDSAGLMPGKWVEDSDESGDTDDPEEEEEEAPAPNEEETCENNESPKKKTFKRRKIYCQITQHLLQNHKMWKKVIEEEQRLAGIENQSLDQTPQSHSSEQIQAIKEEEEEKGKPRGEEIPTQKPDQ
Chain of PDE-10A1 (Q9Y233 1-779 isoform Q9Y233-1): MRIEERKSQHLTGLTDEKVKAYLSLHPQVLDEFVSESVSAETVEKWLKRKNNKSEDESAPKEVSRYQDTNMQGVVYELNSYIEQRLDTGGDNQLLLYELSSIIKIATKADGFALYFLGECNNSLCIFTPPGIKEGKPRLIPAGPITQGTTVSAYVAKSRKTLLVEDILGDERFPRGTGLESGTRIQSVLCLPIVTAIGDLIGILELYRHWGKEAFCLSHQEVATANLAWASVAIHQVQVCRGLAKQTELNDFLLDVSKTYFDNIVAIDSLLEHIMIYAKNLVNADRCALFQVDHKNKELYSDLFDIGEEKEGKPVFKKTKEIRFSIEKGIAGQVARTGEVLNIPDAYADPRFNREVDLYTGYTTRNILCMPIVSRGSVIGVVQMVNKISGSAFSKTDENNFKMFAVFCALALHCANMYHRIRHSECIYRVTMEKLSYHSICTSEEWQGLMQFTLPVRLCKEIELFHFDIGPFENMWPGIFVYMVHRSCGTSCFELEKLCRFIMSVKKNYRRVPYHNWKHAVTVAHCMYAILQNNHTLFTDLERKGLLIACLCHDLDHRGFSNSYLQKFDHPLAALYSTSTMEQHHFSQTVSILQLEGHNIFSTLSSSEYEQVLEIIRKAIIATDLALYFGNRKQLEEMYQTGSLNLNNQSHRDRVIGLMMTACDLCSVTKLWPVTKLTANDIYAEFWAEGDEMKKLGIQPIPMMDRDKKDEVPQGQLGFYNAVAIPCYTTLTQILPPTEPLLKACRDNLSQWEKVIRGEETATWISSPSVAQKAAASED

On to `CCC1C(C)=NN=C(c2ccc(OC)c(OC)c2)c2cc(OC)c(OC)cc21` (racemic) [tofisopam, 1-(3,4-dimethoxyphenyl)-5-ethyl-7,8-dimethoxy-4-methyl-5H-2,3-benzodiazepine], for which the IC50 was determined as 920 nM against PDE-10A1, 1980 nM at PDE-3A, 2110 nM against PDE-2A3 and 420 nM on PDE-4A1.
